The results in this text go back to patent EP4800015A1, “AZABICYCLO DERIVATIVE AND PREPARATION METHOD THEREFOR, AND USE” (Zhejiang Hisun Pharmaceutical Co., Ltd., priority 2023, dated 2025).

Molecules are shown by their SMILES. pIC50: −log10 of the molar value.

The target in one experiment is T1, recombinant human WRN (Homo sapiens, UniProt Q14191).
T1 construct: purchased BPS 101264
In words: Inhibition of WRN enzyme activity (ATPase), ADP-Glo Kinase Assay. It counts as biochemical. To be noted: WRN protein 5 nM, Flap 0.1 nM, ATP 30 µM; read-out: IC50. In short, it runs like this:
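ATPase activity was measured by ADP-Glo luminescence after a 10-min room-temperature reaction with 30 µM ATP and 0.1 nM Flap26 oligonucleotide substrate. The 5 nM WRN had first been exposed to compound (0.004–1000 nM) for 15 min in pH 7.5 Tris buffer with 2 mM MgCl2. IC50 values came from log-concentration regression against the DMSO control.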
(ADP-Glo turns the ADP formed in a reaction into a luminescent signal.)

A further experiment concerns SW48 cells. Description: Inhibition of SW48 cell proliferation (CellTiter-Glo). The settings on record: Homo sapiens; SW48 cells (MSI-H), 120 hours. It counts as cell-based. As to the method: The following method was used to determine the effect of the compounds of the present disclosure on SW48 cell proliferation. SW48 cells (MSI-H cells) were purchased from American ATCC cell bank and cultured in Leibovitz's L-15 medium (Gibco, catalog No. 11415064) containing 10% fetal bovine serum, 100 U penicillin, and 100 µg/mL streptomycin. Cell viability was determined by CellTiter-Glo® Luminescent Cell Viability Assay kit (Promega, catalog No. G7573).
(§1) The experiment was performed according to the steps of the kit manual, which is briefly described as follows: test compounds were first dissolved in DMSO to prepare 10 mM stock solutions, and then diluted with medium to prepare test samples, with final compound concentrations ranging from 10000 nM to 1.52 nM. Cells in logarithmic growth phase were seeded into 96-well cell culture plates at a density of 500 cells per well and cultured overnight at 37 °C in an air incubator, then test compounds were added and cultivation continued for 120 hours. After the cultivation was completed, 40 µL of CellTiter-Glo detection reagent was added to each well, shaken for 5 minutes, and then left to stand for 10 minutes. Luminescence values of each well were read on a microplate reader using Luminescence mode. The percentage inhibition at each concentration point was calculated by comparison with the control group (0.1% DMSO), and then IC50 values for the compounds for inhibition of cell proliferation were obtained using nonlinear regression analysis of compound concentration logarithm versus inhibition rate in GraphPad Prism 9 software, as shown in Table 2.
The IC50 value results of the compounds of the present disclosure are represented by A, wherein "A" indicates 1 nM < IC50 ≤ 100 nM. Table 2 IC50 data for inhibition of SW48 cell proliferation by the compounds of the present disclosure

A further experiment relates to RL95-2 cells. In words: Inhibition of RL95-2 cell proliferation (CellTiter-Glo). In kind it is cell-based. To be noted: Homo sapiens; RL95-2 cells (MSI-H), 120 hours. As to the method: The following method was used to determine the effect of the compounds of the present disclosure on RL95-2 cell proliferation. RL95-2 cells (MSI-H cells) were purchased from Cell Resource Center of Shanghai Institutes for Biological Sciences, Chinese Academy of Sciences, and cultured in DMEM/F12 medium (Gibco, catalog No. A4192001) containing 10% fetal bovine serum, 100 U penicillin, and 100 µg/mL streptomycin. Cell viability was determined by CellTiter-Glo® Luminescent Cell Viability Assay kit (Promega, catalog No. G7573).
as §1, with “a 5% CO2” for “an air”, “incubator, and” for “incubator,”, “50” for “40”, “3.” for “2.”
The IC50 value results of the compounds of the present disclosure are represented by A, wherein "A" indicates 1 nM < IC50 ≤ 100 nM. Table 3 IC50 data for inhibition of RL95-2 cell proliferation by the compounds of the present disclosure

T1 sequence (Q14191 whole entry): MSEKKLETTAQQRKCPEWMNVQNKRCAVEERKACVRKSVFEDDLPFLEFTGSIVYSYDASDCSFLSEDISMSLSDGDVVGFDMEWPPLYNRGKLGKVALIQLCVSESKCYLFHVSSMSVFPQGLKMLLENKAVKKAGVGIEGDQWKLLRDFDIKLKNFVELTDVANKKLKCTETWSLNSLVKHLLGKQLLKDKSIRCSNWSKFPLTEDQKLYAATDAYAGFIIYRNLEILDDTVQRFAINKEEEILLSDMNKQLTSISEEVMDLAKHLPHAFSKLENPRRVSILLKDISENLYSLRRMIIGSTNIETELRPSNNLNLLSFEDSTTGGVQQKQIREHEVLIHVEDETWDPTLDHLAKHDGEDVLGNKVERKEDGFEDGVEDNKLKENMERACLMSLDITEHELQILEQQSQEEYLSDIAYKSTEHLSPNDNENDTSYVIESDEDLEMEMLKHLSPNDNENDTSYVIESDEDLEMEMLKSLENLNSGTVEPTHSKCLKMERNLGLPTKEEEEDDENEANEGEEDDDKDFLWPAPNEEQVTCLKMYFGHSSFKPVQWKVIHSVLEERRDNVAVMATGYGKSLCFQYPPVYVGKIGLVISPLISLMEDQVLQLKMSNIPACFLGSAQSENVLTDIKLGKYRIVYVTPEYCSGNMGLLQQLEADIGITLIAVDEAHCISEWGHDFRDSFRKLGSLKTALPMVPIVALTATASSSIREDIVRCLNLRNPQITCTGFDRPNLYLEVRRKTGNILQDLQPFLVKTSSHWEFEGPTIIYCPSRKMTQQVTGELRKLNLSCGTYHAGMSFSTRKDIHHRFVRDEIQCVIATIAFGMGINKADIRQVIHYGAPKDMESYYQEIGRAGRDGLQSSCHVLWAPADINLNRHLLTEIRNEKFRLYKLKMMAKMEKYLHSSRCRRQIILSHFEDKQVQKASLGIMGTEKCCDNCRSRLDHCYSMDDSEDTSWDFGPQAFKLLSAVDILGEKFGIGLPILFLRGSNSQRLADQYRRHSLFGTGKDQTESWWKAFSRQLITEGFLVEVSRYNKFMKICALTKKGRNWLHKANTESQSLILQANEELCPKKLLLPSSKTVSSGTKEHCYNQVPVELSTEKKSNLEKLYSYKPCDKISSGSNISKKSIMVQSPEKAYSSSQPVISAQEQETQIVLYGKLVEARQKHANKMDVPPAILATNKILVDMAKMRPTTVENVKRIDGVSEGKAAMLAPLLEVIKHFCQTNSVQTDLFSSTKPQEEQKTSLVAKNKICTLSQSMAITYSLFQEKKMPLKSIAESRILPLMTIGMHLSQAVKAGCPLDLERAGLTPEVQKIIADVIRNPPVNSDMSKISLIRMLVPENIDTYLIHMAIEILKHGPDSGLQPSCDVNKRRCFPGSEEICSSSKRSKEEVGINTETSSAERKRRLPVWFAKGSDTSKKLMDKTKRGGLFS

Turning to `CCc1c(N2CCN(C(=O)c3ncnc(C)c3O)CC2)c(=O)n2nc(C=C3CCC3)nc2n1CC(=O)Nc1ccc(C(F)(F)F)cc1Cl` [Example 33, N-(2-chloro-4-(trifluoromethyl)phenyl)-2-(2-(cyclobutylidenemethyl)-5-ethyl-6-(4-(5-hydroxy-6-methylpyrimidine-4-carbonyl)piperazin-1-yl)-7-oxo-[1,2,4]triazolo[1,5-a]pyrimidin-4(7H)-yl) acetamide], the pIC50 on recombinant human WRN is more than 9.00; in the experiment with SW48 cells, 7.00 to 9.00.
For `CCc1c(N2CCN(C(=O)c3ncccc3O)CC2)c(=O)n2nc(C=C3CCC3)nc2n1CC(=O)Nc1ccc(S(F)(F)(F)(F)F)cc1` [Example 52, 2-(2-(cyclobutylidenemethyl)-5-ethyl-6-(4-(3-hydroxypicolinoyl)piperazin-1-yl)-7-oxo-[1,2,4]triazolo[1,5-a]pyrimidin-4(7H)-yl)-N-(4-(pentafluoro-λ^6-sulfaneyl)phenyl)acetamide] the same measures were more than 9.00 and 7.00 to 9.00.
For the compound `CCc1c(N2CCN(C(=O)c3ncnc(C)c3O)CC2)c(=O)n2nc(-c3cc4ccccc4[nH]3)nc2n1CC(=O)Nc1ccc(C(F)(F)F)cc1Cl` [Example 73, N-(2-Chloro-4-(trifluoromethyl)phenyl)-2-(5-ethyl-6-(4-(5-hydroxy-6-methylpyrimidine-4-carbonyl)piperazin-1-yl)-2-(1H-indol-2-yl)-7-oxo-[1,2,4]triazolo[1,5-a]pyrimidin-4(7H)-yl)acetamide], the pIC50 in the experiment with RL95-2 cells and at recombinant human WRN was 7.00 to 9.00 in each case.
With `CCc1c(N2CCN(C(=O)c3ncnc(C)c3O)CC2)c(=O)n2nc(-c3cc4ccccc4n3C)nc2n1CC(=O)Nc1ccc(C(F)(F)F)cc1Cl` [Example 74, N-(2-chloro-4-(trifluoromethyl)phenyl)-2-(5-ethyl-6-(4-(5-hydroxy-6-methylpyrimidine-4-carbonyl)piperazin-1-yl)-2-(1-methyl-1H-indol-2-yl)-7-oxo-[1,2,4]triazolo[1,5-a]pyrimidin-4(7H)-yl)ac etamide], the pIC50 in the experiment with RL95-2 cells and at recombinant human WRN was 7.00 to 9.00 throughout.
In the case of `CCc1c(N2CCN(C(=O)c3ncnc(C)c3O)CC2)c(=O)n2nc(-c3ccc4ccoc4c3)nc2n1CC(=O)Nc1ccc(S(F)(F)(F)(F)F)cc1` [Example 77, 2-(2-(benzofuran-6-yl)-5-ethyl-6-(4-(5-hydroxy-6-methylpyrimidine-4-carbonyl)piperazin-1-yl)-7-oxo-[1,2,4]triazolo[1,5-a]pyrimidin-4(7H)-yl)-N-(4-(pentafluoro-λ^6-sulfaneyl)phenyl)acetamide], the pIC50 in the experiment with RL95-2 cells and on recombinant human WRN was 7.00 to 9.00 throughout.
In the case of `CCc1c(N2CCN(C(=O)c3ncnc(C)c3O)CC2)c(=O)n2nc(-c3ccc4c(c3)CCO4)nc2n1CC(=O)Nc1ccc(S(F)(F)(F)(F)F)cc1Cl` [Example 87, N-(2-chloro-4-(pentafluoro-λ^6-sulfaneyl)phenyl)-2-(2-(2,3-dihydrobenzofuran-5-yl)-5-ethyl-6-(4-(5-hydroxy-6-methylpyrimidine-4-carbonyl)piperazin-1-yl)-7-oxo-[1,2,4]triazolo[1,5-a]pyrimidin-4(7H)-yl)acetamide], the pIC50 on recombinant human WRN and with SW48 cells was 7.00 to 9.00 each time.
As for `CCc1c(N2CCN(C(=O)c3ncnc(C)c3O)CC2)c(=O)n2nc(-c3ccc4c(c3)CCO4)nc2n1CC(=O)Nc1ccc(SC(F)(F)F)cc1F` [Example 89, 2-(2-(2,3-Dihydrobenzofuran-5-yl)-5-ethyl-6-(4-(5-hydroxy-6-methylpyrimidine-4-carbonyl)piperazin-1-yl)-7-oxo-[1,2,4]triazolo[1,5-a]pyrimidin-4(7H)-yl)-N-(2-fluoro-4-((trifluoromethyl)thio)phenyl)acetamide], the negative-log IC50 (pIC50) with RL95-2 cells and at recombinant human WRN was 7.00 to 9.00 each time.
On to `CCc1c(C2=CCN(C(=O)c3ncnc(C)c3O)CC2)c(=O)n2nc(C3=CCCCCC3)nc2n1CC(=O)Nc1ccc(S(F)(F)(F)(F)F)cc1` [Example 91, 2-(2-(cyclohept-1-en-1-yl)-5-ethyl-6-(1-(5-hydroxy-6-methylpyrimidine-4-carbonyl)-1,2,3,6-tetra hydropyridin-4-yl)-7-oxo-[1,2,4]triazolo[1,5-a]pyrimidin-4(7H)-yl)-N-(4-(pentafluoro-λ^6-sulfaneyl)phenyl)acetamide], for which the pIC50 at recombinant human WRN and in the experiment on SW48 cells was 7.00 to 9.00 throughout.
Take `CCc1c(N2CCN(C(=O)c3ncnc(C)c3O)CC2)c(=O)n2nc(-c3cc4ccccc4o3)nc2n1CC(=O)Nc1ccc(S(F)(F)(F)(F)F)cc1` [Example 96, 2-(2-(benzofuran-2-yl)-5-ethyl-6-(4-(5-hydroxy-6-methylpyrimidine-4-carbonyl)piperazin-1-yl)-7-oxo-[1,2,4]triazolo[1,5-a]pyrimidin-4(7H)-yl)-N-(4-(pentafluoro-λ^6-sulfaneyl)phenyl)acetamide]: the pIC50 on recombinant human WRN and in the experiment on SW48 cells was 7.00 to 9.00 throughout.
For the compound `CCc1c(N2CCN(C(=O)c3ncccc3O)CC2)c(=O)n2nc(-c3ccc4c(c3)CCO4)nc2n1CC(=O)Nc1ccc(C(F)(F)F)cc1Cl` [Example 104, N-(2-chloro-4-(trifluoromethyl)phenyl)-2-(2-(2,3-dihydrobenzofuran-5-yl)-5-ethyl-6-(4-(3-hydroxypicolinoyl)piperazin-1-yl)-7-oxo-[1,2,4]triazolo[1,5-a]pyrimidin-4(7H)-yl)acetamide], the pIC50 at recombinant human WRN and in the experiment with SW48 cells was 7.00 to 9.00 each time.
As to `CCc1c(N2CCN(C(=O)c3nc(C)ccc3O)CC2)c(=O)n2nc(-c3ccc4c(c3)CCO4)nc2n1CC(=O)Nc1ccc(C(F)(F)F)cc1Cl` [Example 105, N-(2-chloro-4-(trifluoromethyl)phenyl)-2-(2-(2,3-dihydrobenzofuran-5-yl)-5-ethyl-6-(4-(3-hydroxy-6-methylpicolinoyl)piperazin-1-yl)-7-oxo-[1,2,4]triazolo[1,5-a]pyrimidin-4(7H)-yl)a cetamide], the pIC50 on recombinant human WRN and in the experiment with SW48 cells was 7.00 to 9.00 throughout.
Regarding `Cc1ncnc(C(=O)N2CCN(c3c(C4CC4)n(CC(=O)Nc4ccc(C(F)(F)F)cc4Cl)c4nc(-c5ccc6c(c5)CCO6)nn4c3=O)CC2)c1O` [Example 152, N-(2-chloro-4-(trifluoromethyl)phenyl)-2-(5-cyclopropyl-2-(2,3-dihydrobenzofuran-5-yl)-6-(4-(5-hydroxy-6-methylpyrimidine-4-carbonyl)piperazin-1-yl)-7-oxo-[1,2,4]triazolo[1,5-a]pyrimidin-4 (7H)-yl)acetamide], the pIC50 in the experiment with RL95-2 cells and at recombinant human WRN was 7.00 to 9.00 in each case.
Regarding `CCc1c(N2CCN(C(=O)c3ncnc(C)c3O)CC2)c(=O)n2nc(C3=CC4CC4C3)nc2n1CC(=O)Nc1ccc(S(F)(F)(F)(F)F)cc1Cl` (centres unmarked) [Example 167, 2-(2-(bicyclo[3.1.0]hex-2-en-3-yl)-5-ethyl-6-(4-(5-hydroxy-6-methylpyrimidine-4-carbonyl)piperazin-1-yl)-7-oxo-[1,2,4]triazolo[1,5-a]pyrimidin-4(7H)-yl)-N-(2-chloro-4-(pentafluoro-λ^6-sulfaneyl)phenyl)acetamide], the pIC50 with RL95-2 cells and at recombinant human WRN was 7.00 to 9.00 throughout.

One may read the pIC50 as the negative decadic logarithm of the IC50, by convention in mol/L.
